Experiments:
[1] = tested on: diet-induced obesity (DIO); test: Diet-induced obese (DIO) mice on high-fat diet, metabolic profile; assay type: in vivo, C57Bl/6 mice
From the text: The experimental protocol used was approved by the Institutional Animal Care and Use Committee of the Hebrew University, which is an AAALAC International accredited institute. Male 6-week-old C57Bl/6 mice were obtained from Harlan Laboratories. Mice were maintained under a 12-h light/dark cycle and fed ad libitum. To generate diet-induced obesity, the mice were fed either a high-fat diet (HFD) (60% of calories from fat, 20% from protein, and 20% from carbohydrates; Research Diet, D12492) or a standard laboratory diet (STD, 14% fat, 24% protein, 62% carbohydrates; NIH-31 rodent diet) for 14 weeks.
HFD-fed obese mice received vehicle (1% Tween80, 4% DMSO, 95% Saline) or CBDA-ME daily for 28 days by intraperitoneal (ip) injections of 40 mg/kg. Age-matched control mice on STD received vehicle daily. Body weight and food intake were monitored daily. Total body fat and lean masses were determined by EchoMRI-100H™ (Echo Medical Systems LLC, Houston, Tex., USA). 24 h urine was collected one week before euthanasia using mouse metabolic cages (CCS2000 Chiller System, Hatteras Instruments, NC, USA). At weeks 20, mice were euthanized by a cervical dislocation under deep anesthesia, the kidneys, liver, fat pads, and muscles were removed and weighed, and samples were either snap-frozen or fixed in buffered 4% formalin. Trunk blood was collected for determining the biochemical parameters.
The experimental protocol used Metabolic profile of the mice was assessed by using the Promethion High-Definition Behavioral Phenotyping System (Sable Instruments, Inc., Las Vegas, Nev., USA). Data acquisition and instrument control were performed using MetaScreen software version 2.2.18.0, and the obtained raw data were processed using ExpeData version 1.8.4 using an analysis script detailing all aspects of data transformation. Mice with free access to food and water were subjected to a standard 12 h light/12 h dark cycle, which consisted of a 48 h acclimation period followed by 24 h of sampling. Respiratory gases were measured by using the GA-3 gas analyzer (Sable Systems, Inc., Las Vegas, Nev., USA) using a pull-mode, negative-pressure system. Air flow was measured and controlled by FR-8 (Sable Systems, Inc., Las Vegas, Nev., USA), with a set flow rate of 2000 mL/min. Water vapor was continuously measured and its dilution effect on O2 and CO2 was mathematically compensated. Effective mass was calculated by [body mass]^0.75. Fat oxidation (FO) and carbohydrate oxidation (CHO) were calculated as FO=1.69×VO2−1.69×VCO2 and CHO=4.57×VCO2−3.23×VO2 and expressed as g/d/kg^eff.Mass.
Locomotor activity was quantified by the number of disruptions of infrared XYZ beam arrays with a beam spacing of 0.25 cm in the Promethion High-Definition Behavioral Phenotyping System (Sable Instruments, Inc., Las Vegas, Nev., USA).
Mice that fasted overnight were injected with glucose (1.5 g/kg, ip), followed by a tail blood collection at 0, 15, 30, 45, 60, 90, and 120 minutes. Blood glucose levels were determined using the Elite glucometer (Bayer, Pittsburgh, Pa.).
Serum and urine levels of creatinine as well as serum levels of cholesterol, triglycerides (TG), high-density lipoprotein (HDL), low-density lipoprotein (LDL), alanine aminotransferase (ALT), aspartate aminotransferase (AST), and alkaline phosphatase (ALP) were determined using the Cobas C-111 chemistry analyzer (Roche, Switzerland) […]. Creatinine clearance was calculated using urine and serum creatinine levels (CCr mL/h=Urine creatinine mg/dL×Urine volume/Serum creatinine mg/dL×24 hrs). Fasting blood glucose was measured using the Elite glucometer (Bayer, Pittsburgh, Pa.).
Liver tissues were extracted as described previously (Tam, J., et al., Cell Metab, 2012. 16(2): p. 167-79) and its triglyceride content was determined using the EnzyChrom™ Triglyceride Assay Kit (BioAssay Systems). […]

[2] = tested on: DSS induced acute colitis; test: DSS induced acute colitis mouse model, EPM-301 versus EPM-302, Example 13; assay type: in vivo, C57BL/6 mice
Protocol: Colitis was induced in 10 weeks old female C57BL/6 mice using dextran sodium sulphate (DSS). Mice were fed for 8 days with 2% (wt/vol) DSS in their drinking water. […] EPM-302 served as an additional control.
Weight loss was measured on days 1, 3, 5, 8, and 10.
Next, the mice were sacrificed and the length of their colons were measured.
Cytokine levels of IL-6 and TNFα were measured using ELISA kits (R&D Systems, USA). Colon TNFα (FIG. 19), blood IL-6 (FIG. 20), levels were lower in mice treated with CBDA-Me (EPM-301) as compared to EPM-302. Similarly, the MEICS score of EPM-301 treated subjects were also lower than EPM-302 treated subjects (FIG. 21). Representative photos of colonoscopy can be seen in FIG. 22A-22D.

[3] = HFD mice, 40 mg/kg/d ip for 28 days
[4] = HFD mice, 40 mg/kg/d ip for 28 days (FIG. 30)
[5] = obesity related hepatocellular injury (FIG. 28)

For `C=C(C)[C@@H]1CCC(C)=CC1c1c(O)cc(CCCCC)c(C(=O)OC)c1O` (stereo partly shown) [EPM-301, cannabidiolic acid methyl ester], the HDL-cholesterol [1, 3] was “without changing”, the LDL-cholesterol [1, 3] was “reduced” and the “overweight (body weight)” value ([1]; HFD mice, 40 mg/kg/d ip for 28 days (FIG. 23A)) was “significantly reduced”. For the same compound, the “adiposity (fat mass)” value ([1]; HFD mice, 40 mg/kg/d ip for 28 days (FIG. 23B)) was “significantly reduced”, the lean body mass ([1]; HFD mice, 40 mg/kg/d ip for 28 days (FIG. 23C)) was “without affecting” and the leptin levels ([1]; HFD mice, 40 mg/kg/d ip for 28 days (FIG. 23D)) was “reduction”. For the same compound, the total ambulatory activity ([1]; HFD mice, 40 mg/kg/d ip for 28 days (FIG. 25B)) was “without changing”, the “HFD-induced hypertriglyceridemia (serum triglycerides)” value ([1]; HFD mice, 40 mg/kg/d ip for 28 days (FIG. 26A)) was “significantly reduced” and the “HFD-induced hypercholesterinemia (serum cholesterol)” value ([1]; HFD mice, 40 mg/kg/d ip for 28 days (FIG. 26B)) was “significantly reduced”. The “ratio between HDL to LDL” value ([1]; HFD mice, 40 mg/kg/d ip for 28 days (FIG. 26C)) was “Increased”, the fasting glucose levels ([1]; HFD mice, 40 mg/kg/d ip for 28 days (FIG. 27A)) was “no change” and the “HFD-induced hepatic steatosis: elevated hepatic triglyceride levels” value ([1]; HFD mice, 40 mg/kg/d ip for 28 days (FIG. 29A)) was “completely attenuated”. For the same compound, the “HFD-induced hepatic steatosis: increased fat vacuoles in the liver” value ([1]; HFD mice, 40 mg/kg/d ip for 28 days (FIG. 29B)) was “completely attenuated”, the “HFD-induced kidney hypofiltration (creatinine clearance)” value [1, 4] was “completely normalized” and the “reduction in urine excretion-to-water consumption ratio” value [1, 4] was “completely normalized”. For the same compound, the “glucose intolerance (ip glucose tolerance test)” value ([1]; glucose 1.5 g/kg ip after overnight fast (FIG. 27B-27D)) was “significant reduction”, the “utilization of fat (fat oxidation)” value ([1]; indirect calorimetry, similar to lean mice on STD (FIG. 24A)) was “downregulate” and the carbohydrate oxidation ([1]; indirect calorimetry, similar to lean mice on STD (FIG. 24B)) was “upregulate”. For the same compound, the “serum levels of ALP” value [1, 5] was “reduction”, the “serum levels of ALT” value [1, 5] was “reduction” and the “serum levels of AST” value [1, 5] was “reduction”. For the same compound, the “ability to run on a wheel” value ([1]; similar to STD-fed animals (FIG. 25A)) was “increased ability”, the therapeutic effect ([2]; 10 mg/kg) was “not enough to induce a therapeutic effect” and the weight loss ([2]; 40 mg/kg by gavage, compared to CBD and EPM-302 (FIG. 17)) was “reduced”. For the same compound, the colon length ([2]; 40 mg/kg, versus EPM-302 and untreated mice, similar to prednisone (FIG. 18)) was “greater/longer”, the “colon TNFα” value ([2]; as compared to EPM-302, ELISA (FIG. 19)) was “lower” and the “blood IL-6” value ([2]; as compared to EPM-302, ELISA (FIG. 20)) was “lower”. The MEICS score ([2]; versus EPM-302 treated subjects (FIG. 21)) was “lower”.

Source: patent US12403114B2, “Cannabinoid acid ester compositions and uses thereof” (EPM (IP), INC., priority 2019, dated 2025)
